Source: US11054422B2, “Circulating astrocytes and MFSD2A as biomarkers” (priority 2017, dated 2021)

What was measured:
[1] = system: BBB; assay: Blood cell biomarkers, serum markers and BBB extravasation in mice treated with nicotine, METH and gp120; settings: for Evans blue and albumin extravasation into the brain / blood levels of CD133+/CD146+ endothelial PCs (EPCs) / blood levels of circulating Astrocytes (cAstr) / blood levels of circulating BMECs (cBMECs), CD146+/S100B+: treated mice
Method: Nicotine tartrate (NT) and methamphetamine (METH) were purchased from Sigma-Aldrich (St. Louis, Mo.). Dynabeads® M-450 Tosylactivated was obtained from Invitrogen (Carlsbad, Calif.) and utilized for magnetic bead extraction. Ulexeuropaeus 1 (UEA I) lectin and mounting medium with 4′,6-diamidino-2-phenylindole (DAPI) were purchased from Vector (Buringame, Calif.). HIV-1 gp120 was purchased from Immunodiagnostics (Woburn, Mass.). Serum levels of molecular markers were determined by ELISA using antibodies and antigens from Creative Biomart (New York, N.Y.) (S100B) and ProteinTech (Chicago, Ill.) (ubiquitin C-terminal hydrolase 1, UCHL1). The Mfsd 2a antibody was purchased from Santa Cruz Biotechnology, Inc. (Dallas, TEXAS). All primary antibodies (Ab) were purchased from the commercial sources: a rabbit anti-α7 nAChR Ab from Genescript (Piscataway, N.J.); a rat anti-mouse Ly-6G (Gr-I) Ab; a mouse anti-CD44 Ab (sc-7297), a rabbit anti-actin (sc-7210), and a rabbit anti-GLUT1 Ab from Santa Cruz Biotechnology (Santa Cruz, Calif.); a rat anti-mouse Ly-6G (Gr-I) Ab FITC-conjugated and an anti-mouse CD146 Ab FITC-conjugated from eBiosciences (San Diego, Calif.), a rabbit anti-SIOOB Ab rhodamine-conjugated from BD Biosciences, and a rabbit anti-CD133 Ab rhodamine-conjugated from Abbiotec (San Diego, Calif.). Transwell filters (3 μm pore size, 6.5 mm diameter), blood plates and CBA assay kit were purchased from BD Biosciences (San Jose, Calif.). Chemicals were purchased from Sigma-Aldrich (St. Louis, Mo.) unless otherwise noted.
Mouse cBMECs were isolated with UIexeuropaeus 1 (UEA 1) lectin-coated Dynabeads as known by one of ordinary skill in the art. The beads were prepared according to the manufacturer's instructions (Invitrogen) and re-suspended in Hanks' balanced salt solution (HBSS. Invitrogen Corp., Carlsbad, Calif., USA) plus 5% fetal calf serum (HBSS+5% FCS) to a final concentration of 4×10^8 beads/mi. Mouse cBMECs in whole blood were affinity captured at 4TC with UEA UEA-1 coated Dynabeads. To eliminate non-specific cell binding to the beads, the cell suspensions were flushed through the pipette tip during the washing steps and then suspended in PBS by using a magnetic particle concentrator (MPC). The bound cells were incubated with 0.5M fucose for 10 min at room temperature to release the beads from target cells. The beads were then washed 5 times with HBSS+5% FBS and collected with the MPC. Then the suspensions were collected and centrifuged. The pellet was collected and affinity captured at 4-C with Msd2a-precoated Dynabeads. After blocking and washing, the cells conjugated to the beads were fixed with 2% paraformaldehyde and 0.25% glutaradehyde for 30 minutes. Then the FITC-conjugated CD146 antibody (BMECs specific marker, used for cBMEC identification) was added and incubated with the beads-bound cells overnight (dark). At last, DAPI was added and incubated with the beads-bound cells for 30 min. The cells (10 ul) were transferred to the cell counter, and counted under a florescence microscope.
Mouse astrocytes were isolated with Concanavalin A (ConA)-coated magnetic beads as known by one of ordinary skill in the art. Dynabeads™ beads were prepared according to the manufacturer's instructions (Invitrogen) and re-suspended in Hanks' balanced salt solution (HBSS, Invitrogen Corp., Carlsbad, Calif., USA) plus 5% fetal calf serum (HBSS+5% FCS) to a final concentration of 4×10^8 beads/ml. Mouse astrocytes in whole blood were affinity captured at 4° C. with ConA coated Dynabeads™. To eliminate non-specific cell binding to the beads, the cell suspensions were flushed through the pipette tip during the washing steps and then suspended in PBS by using a magnetic particle concentrator (MPC). The bound cells were incubated with 0.5M fucose for 10 min at room temperature to release the beads from target cells. The beads were then washed 5 times with HBSS+5% FBS and collected with the MPC. Then the suspensions were collected and centrifuged. […]

[2] = molecular target: T1, α7 nAChR (Mus musculus, UniProt P49582); assay: Memantine effect on E. coli K1 (E44)-induced cAstr/cBMEC shedding in neonatal mice; format: in vivo; settings: neonatal (10 day-old) mice intraperitoneally injected with E44 and treated with MEM, P<0.001
T1 construct: endogenous in cells; host or cells: live neonatal (10 day-old) mice, in vivo; C57BL/6J is the strain stated for the animal experiments in general
Description: (§1) Then the suspensions were collected and centrifuged.
As α7 nAChR plays an important role in CNS Inflammation induced by microbial and non-microbial factors, we have proposed that turnover and shedding of astrocytes and BMECs could be regulated by α7 nAChR. To test this hypothesis, the correlation of α7 nAChR with cAstr/cBMEC shedding and CNS inflammation induced by meningitic E. coli K1 (E44) was examined an α7 nAChR antagonist memantine (MEM) described in the experimental methods herein. In this study, neonatal (10 day-old) mice were intraperitoneally injected with E44 and treated with MEM.

[3] = system: cAstr and cBMECs; assay: cAstr and cBMEC density in peripheral blood of mice treated with gp120 and METH; format: in vivo, mouse; settings: vs controls without treatment (CON)
Description: as §1

T1 sequence (P49582 23-502): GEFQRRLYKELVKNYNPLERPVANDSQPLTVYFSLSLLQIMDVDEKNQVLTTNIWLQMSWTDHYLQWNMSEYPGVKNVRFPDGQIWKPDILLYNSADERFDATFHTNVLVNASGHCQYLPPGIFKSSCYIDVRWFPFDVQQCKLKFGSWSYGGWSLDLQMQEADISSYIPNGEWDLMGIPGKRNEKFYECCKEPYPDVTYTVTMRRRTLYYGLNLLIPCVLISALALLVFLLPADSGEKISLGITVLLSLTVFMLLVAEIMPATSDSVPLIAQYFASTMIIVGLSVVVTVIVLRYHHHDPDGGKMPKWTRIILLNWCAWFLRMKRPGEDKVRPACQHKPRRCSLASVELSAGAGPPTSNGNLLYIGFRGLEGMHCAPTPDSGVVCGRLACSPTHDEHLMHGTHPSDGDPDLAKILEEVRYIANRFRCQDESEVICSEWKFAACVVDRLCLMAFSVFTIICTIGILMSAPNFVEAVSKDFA

| SMILES | serum levels of S100B ([1]; mice, ELISA) | serum levels of ubiquitin C-terminal hydrolase 1 ([1]; mice, ELISA) | Evans blue and albumin extravasation into the brain [1] | blood levels of CD133+/CD146+ endothelial PCs (EPCs) [1] | blood levels of circulating Astrocytes (cAstr) [1] | blood levels of circulating BMECs (cBMECs), CD146+/S100B+ [1] | shedding of cAstr (blood level) [2] | shedding of cBMECs (blood level) [2] | shedding of cAstr (blood level) ([2]; listed as memantine) | shedding of cBMECs (blood level) ([2]; listed as memantine) | Astr (cAstr) shedding ([3]; FIG. 6A) | cBMEC shedding ([3]; FIG. 6B) |
| --- | --- | --- | --- | --- | --- | --- | --- | --- | --- | --- | --- | --- |
| CN1CCCC1c1cccnc1.O=C(O)C(O)C(O)C(=O)O (stereo not shown) [nicotine, Nicotine tartrate] | significantly increase | significantly increase | enhanced | increased blood levels | increased blood levels | increased blood levels | – | – | – | – | – | – |
| CC12CC3CC(C)(C1)CC(N)(C3)C2 [MEM, memantine] | – | – | – | – | – | – | significantly block | significantly block | reduce | reduce | – | – |
| CN[C@@H](C)Cc1ccccc1 [METH, methamphetamine] | – | – | enhanced | increased blood levels | increased blood levels | increased blood levels | – | – | – | – | significantly induce | significantly induce |
